Reference: patent US20240124504A1, “AROMATIC HETEROCYCLIC COMPOUND, AND PHARMACEUTICAL COMPOSITION AND APPLICATION THEREOF” (GT APEIRON THERAPEUTICS LIMITED, priority 2020, published 2024)

Assays:
[1] = molecular target: CDK9/cyclinT1 complex (Homo sapiens, UniProt P50750); experiment: In-vitro enzymatic inhibitory activity testing, CDK9 inhibition assay (Caliper EZ Reader II); format: biochemical; details: CDK9/cyclinT1 8 nM, 180 min at 27° C.
Method in brief: (§1)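 Enzyme preincubated 10 min with compound, then peptide substrate plus ATP added in 80 mM MES pH 6.5, 10 mM MgCl2 buffer; 180 min at 27 °C, stopped with EDTA.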

[2] = molecular target: CDK2/cyclinE1 complex (Homo sapiens, UniProt P24941); experiment: In-vitro enzymatic inhibitory activity testing, CDK2 inhibition assay (Caliper EZ Reader II); format: biochemical; details: CDK2/cyclinE1 0.5 nM, 180 min at 27° C.
Method in brief: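 CDK2/cyclinE1 (0.5 nM) phosphorylated 5-FAM-CDK7tide (2 μM) in MES buffer pH 6.5 with MgCl2, Tween 20 and BSA. Substrate and product were separated electrophoretically on a Caliper EZ Reader II. IC50 values came from nonlinear dose-response fits.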

[3] = tested on: human breast cancer cells HCC70; experiment: Cell biological activity detection (CyQuant, 72 hours), HCC70; format: cell-based; details: incubation for 72 hours
Method in brief: (§2)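 A2780 and HCC70 cells seeded at 2000/well in RPMI 1640 + 10% FBS, treated next day with 9-point compound dilutions (top 10 μM, 1:4; 0.2% DMSO) for 72 h at 37 °C. Cell number read by CyQuant Direct nucleic acid stain (ex 488 nm); IC50 from dose–response fit.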

[4] = molecular target: CDK7/cyclinH/MAT1 complex (Homo sapiens, UniProt P50613); experiment: In-vitro enzymatic inhibitory activity testing, CDK7 inhibition assay (Caliper EZ Reader II); format: biochemical; details: CDK7/cyclinH/MAT1 6 nM, 180 min at 27° C.
Sequence of CDK7/cyclinH/MAT1 complex (P50613 whole entry, species assumed): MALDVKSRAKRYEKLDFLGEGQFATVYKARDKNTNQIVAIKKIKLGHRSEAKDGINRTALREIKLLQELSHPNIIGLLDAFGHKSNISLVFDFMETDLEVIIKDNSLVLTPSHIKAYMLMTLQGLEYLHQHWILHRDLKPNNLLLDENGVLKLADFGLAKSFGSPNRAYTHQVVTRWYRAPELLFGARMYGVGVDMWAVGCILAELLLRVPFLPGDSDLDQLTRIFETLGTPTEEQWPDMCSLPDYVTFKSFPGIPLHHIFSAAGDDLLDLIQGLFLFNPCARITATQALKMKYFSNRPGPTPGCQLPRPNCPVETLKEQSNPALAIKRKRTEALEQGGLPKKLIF
Sequence of CDK7/cyclinH/MAT1 complex (P51946 whole entry partner, species assumed): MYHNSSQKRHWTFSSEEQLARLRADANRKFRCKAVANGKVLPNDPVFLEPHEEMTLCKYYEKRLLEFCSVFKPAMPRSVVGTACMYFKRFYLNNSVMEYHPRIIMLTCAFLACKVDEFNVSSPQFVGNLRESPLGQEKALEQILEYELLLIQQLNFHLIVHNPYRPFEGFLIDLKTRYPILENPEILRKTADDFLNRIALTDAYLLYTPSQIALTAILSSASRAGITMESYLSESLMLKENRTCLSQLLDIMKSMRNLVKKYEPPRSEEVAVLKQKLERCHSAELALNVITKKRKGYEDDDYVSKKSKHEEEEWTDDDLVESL
Sequence of CDK7/cyclinH/MAT1 complex (P51948 whole entry partner, species assumed): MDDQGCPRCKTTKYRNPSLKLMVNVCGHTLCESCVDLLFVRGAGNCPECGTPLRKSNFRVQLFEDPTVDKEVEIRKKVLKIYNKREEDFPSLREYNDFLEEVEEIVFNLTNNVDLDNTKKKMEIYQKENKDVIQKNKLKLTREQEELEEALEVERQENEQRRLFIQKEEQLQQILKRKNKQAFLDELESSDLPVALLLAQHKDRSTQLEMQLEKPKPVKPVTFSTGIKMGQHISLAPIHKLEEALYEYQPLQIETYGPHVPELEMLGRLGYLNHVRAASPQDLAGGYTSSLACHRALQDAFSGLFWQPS
Method in brief: as §1

[5] = tested on: ovarian cancer A2780; experiment: Cell biological activity detection (CyQuant, 72 hours), A2780; format: cell-based, human; details: A2780 cells, incubation for 72 hours
Method in brief: as §2

[6] = molecular target: T1, CDK12 (aa686-1082)/cyclinK complex (Homo sapiens, UniProt Q9NYV4); experiment: In-vitro enzymatic inhibitory activity testing, CDK12 inhibition assay (Caliper EZ Reader II); format: biochemical; details: CDK12/cyclinK 50 nM, 180 min at 27° C.; read-out: CDK12 IC50
T1 construct: A CDK12 (aa686-1082)/cyclinK complex (50 nM)
T1 sequence (Q9NYV4 686-1082, species assumed): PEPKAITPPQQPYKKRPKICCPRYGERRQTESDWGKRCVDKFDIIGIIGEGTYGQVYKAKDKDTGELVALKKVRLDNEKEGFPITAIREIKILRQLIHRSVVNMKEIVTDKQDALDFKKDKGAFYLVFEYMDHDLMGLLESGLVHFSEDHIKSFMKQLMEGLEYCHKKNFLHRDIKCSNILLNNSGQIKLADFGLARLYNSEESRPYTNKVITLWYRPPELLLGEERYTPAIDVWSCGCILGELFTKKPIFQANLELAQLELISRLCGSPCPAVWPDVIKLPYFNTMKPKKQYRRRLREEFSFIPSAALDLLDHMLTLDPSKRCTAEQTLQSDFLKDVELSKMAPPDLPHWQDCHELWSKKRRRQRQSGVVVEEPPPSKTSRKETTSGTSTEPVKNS
T1 sequence (O75909 whole entry partner, species assumed, the tested form may be a part): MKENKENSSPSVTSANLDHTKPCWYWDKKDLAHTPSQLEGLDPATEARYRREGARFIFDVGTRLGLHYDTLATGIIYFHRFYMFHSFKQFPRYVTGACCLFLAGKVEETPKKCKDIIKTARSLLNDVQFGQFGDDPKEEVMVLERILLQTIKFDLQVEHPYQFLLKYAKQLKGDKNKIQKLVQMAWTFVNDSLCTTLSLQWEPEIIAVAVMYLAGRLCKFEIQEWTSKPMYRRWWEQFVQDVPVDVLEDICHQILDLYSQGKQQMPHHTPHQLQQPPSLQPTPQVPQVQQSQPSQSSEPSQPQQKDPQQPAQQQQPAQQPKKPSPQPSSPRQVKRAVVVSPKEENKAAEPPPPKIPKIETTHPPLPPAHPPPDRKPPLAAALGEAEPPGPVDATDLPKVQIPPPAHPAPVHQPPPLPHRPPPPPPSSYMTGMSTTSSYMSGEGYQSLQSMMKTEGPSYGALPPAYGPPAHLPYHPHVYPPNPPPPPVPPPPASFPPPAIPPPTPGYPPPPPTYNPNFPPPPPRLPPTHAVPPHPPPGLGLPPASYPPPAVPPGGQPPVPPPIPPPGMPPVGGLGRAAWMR
Method in brief: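 Caliper EZ Reader II mobility-shift separation of 5-FAM-CDK9tide substrate (2 μM) from phosphoproduct, using 50 nM CDK12 (aa686-1082)/cyclinK in 80 mM MES pH 6.5, 10 mM MgCl2, 0.01% Tween 20, 50 ug/mL BSA. Compound pre-incubated 10 min with enzyme, then substrate/ATP added for 180 min at 27° C; EDTA stop. IC50 by nonlinear dose-response regression.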

Sequence of CDK9/cyclinT1 complex (P50750 whole entry, species assumed): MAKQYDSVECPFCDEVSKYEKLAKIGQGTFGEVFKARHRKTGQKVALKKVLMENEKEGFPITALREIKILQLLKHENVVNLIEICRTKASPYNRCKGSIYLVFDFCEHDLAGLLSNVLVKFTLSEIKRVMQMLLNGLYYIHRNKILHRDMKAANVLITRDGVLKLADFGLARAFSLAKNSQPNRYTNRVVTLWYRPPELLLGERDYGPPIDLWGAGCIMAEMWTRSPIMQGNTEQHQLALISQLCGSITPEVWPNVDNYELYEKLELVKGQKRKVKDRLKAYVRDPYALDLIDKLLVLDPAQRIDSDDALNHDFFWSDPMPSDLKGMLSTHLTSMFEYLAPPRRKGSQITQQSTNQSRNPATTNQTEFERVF
Sequence of CDK9/cyclinT1 complex (O60563 whole entry partner, species assumed): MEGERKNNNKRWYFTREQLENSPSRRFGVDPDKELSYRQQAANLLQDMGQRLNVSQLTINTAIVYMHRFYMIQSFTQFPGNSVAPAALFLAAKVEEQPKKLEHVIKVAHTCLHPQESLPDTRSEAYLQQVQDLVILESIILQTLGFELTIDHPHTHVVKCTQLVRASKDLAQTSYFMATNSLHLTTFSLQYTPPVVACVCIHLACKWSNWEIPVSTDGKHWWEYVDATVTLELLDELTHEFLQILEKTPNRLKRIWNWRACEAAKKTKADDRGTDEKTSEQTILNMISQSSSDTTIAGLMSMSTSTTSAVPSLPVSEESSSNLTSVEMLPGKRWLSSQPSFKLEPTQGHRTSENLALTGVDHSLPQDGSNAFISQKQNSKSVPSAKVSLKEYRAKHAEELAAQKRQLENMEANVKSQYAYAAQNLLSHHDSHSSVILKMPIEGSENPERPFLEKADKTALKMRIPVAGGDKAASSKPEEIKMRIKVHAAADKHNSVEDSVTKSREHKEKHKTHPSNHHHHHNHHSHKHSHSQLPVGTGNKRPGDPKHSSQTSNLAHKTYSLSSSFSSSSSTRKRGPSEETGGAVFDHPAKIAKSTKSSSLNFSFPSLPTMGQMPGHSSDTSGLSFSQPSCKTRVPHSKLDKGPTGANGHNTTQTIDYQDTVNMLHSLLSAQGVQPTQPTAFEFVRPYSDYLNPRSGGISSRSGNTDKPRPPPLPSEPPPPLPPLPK

| IC50 [1] [µM] | IC50 [2] [µM] | IC50 [4] [µM] | IC50 ([5]; Homo sapiens, A2780, 72 h) [µM] | IC50 [6] [µM] | IC50 [5] [µM] | Structure (SMILES) | IC50 ([3]; Homo sapiens, HCC70, 72 h) [µM] | IC50 [3] [µM] |
| --- | --- | --- | --- | --- | --- | --- | --- | --- |
| 5 to 50 | 5 to 50 | < 0.02 | 0.02 to 0.2 | 5 to 50 | – | C[C@H]1COCCN1c1ccc2c(-c3nc(N[C@@H]4CCC45CNC5)ncc3C(F)(F)F)c[nH]c2n1 [Compound 67, (R)—N-(4-(6-((S)-3-methylmorpholine)-1H-pyrrolo[2,3-b]pyridin-3-yl)-5-(trifluoromethyl)pyrimidin-2-yl)-2-azaspiro[3.3]heptan-5-amine] | 0.02 to 0.2 | – |
| > 50 | 0.2 to 5 | < 0.02 | 0.02 to 0.2 | > 50 | – | CP(C)(=O)c1cccc2c(-c3nc(NC[C@H]4C[C@H]4CO)ncc3C(F)(F)F)c[nH]c12 [Compound 141, (3-(2-((((1S,2R)-2-(hydroxymethyl)cyclopropyl)methyl)amino)-5-(trifluoromethyl)pyrimidin-4-yl)-1H-indole-7-yl)dimethylphosphine oxide] | 0.02 to 0.2 | – |
| > 50 | 5 to 50 | 0.02 to 0.2 | – | > 50 | 0.02 to 0.2 | CP(C)(=O)c1cccc2c(-c3nc(NC4CC45CCNC5)ncc3C(F)(F)F)c[nH]c12 (single isomer, unassigned) [Compound 109] | – | 0.02 to 0.2 |
| 5 to 50 | 0.2 to 5 | 0.02 to 0.2 | 0.02 to 0.2 | 0.2 to 5 | – | CN(C)[C@H]1CC[C@H](Nc2ncc(C(F)(F)F)c(-c3c[nH]c4nc(C#N)ccc34)n2)C1 [Compound 66] | < 0.02 | – |
| > 50 | 5 to 50 | 0.2 to 5 | – | 5 to 50 | 0.2 to 5 | FC(F)(F)c1cnc(NC2CCCNCC2)nc1-c1c[nH]c2nc(N3CCOCC3)ccc12 (single isomer, unassigned) [Compound 49] | – | 0.2 to 5 |
| 0.2 to 5 | 0.2 to 5 | < 0.02 | < 0.02 | 0.2 to 5 | – | CP(C)(=O)c1cccc2c(-c3nc(N[C@H]4CC[C@H](N)C4)ncc3C(F)(F)F)c[nH]c12 [Compound 81] | < 0.02 | – |
| 5 to 50 | 5 to 50 | < 0.02 | – | 5 to 50 | < 0.02 | CC1(C)COCC(Nc2ncc(C(F)(F)F)c(-c3c[nH]c4c(P(C)(C)=O)cccc34)n2)CN1 (single isomer, unassigned) [Compound 92, (3-(2-((3,3-dimethyl-1,4-oxazepan-6-yl)amino)-5-(trifluoromethyl)pyrimidin-4-yl)-1H-indole-7-yl)dimethylphosphine oxide] | – | 0.02 to 0.2 |
| 5 to 50 | 5 to 50 | 0.02 to 0.2 | 0.2 to 5 | 5 to 50 | – | FC(F)(F)c1cnc(NC2CCCNCC2)nc1-c1c[nH]c2nc(N3CCOCC3)ccc12 (stereo not drawn) [Compound 47, N-(4-(6-morpholinyl-1H-pyrrolo[2,3-b]pyridin-3-yl)-5-(trifluoromethyl)pyrimidin-2-yl)azepan-4-amine] | 0.2 to 5 | – |
| > 50 | 5 to 50 | < 0.02 | 0.02 to 0.2 | > 50 | – | CC(C)(O)CNc1ncc(C(F)(F)F)c(-c2c[nH]c3c(P(C)(C)=O)cccc23)n1 [Compound 95, (3-(2-((2-hydroxy-2-methylpropyl)amino)-5-(trifluoromethyl)pyrimidin-4-yl)-1H-indole-7-yl)dimethylphosphine oxide] | 0.02 to 0.2 | – |
| 5 to 50 | 5 to 50 | 0.02 to 0.2 | 0.02 to 0.2 | 5 to 50 | – | FC(F)(F)c1cnc(NC2CCC3(CCNC3)C2)nc1-c1c[nH]c2nc(N3CCOCC3)ccc12 (stereo not drawn) [Compound 40, N-(4-(6-morpholinyl-1H-pyrrolo[2,3-b]pyridin-3-yl)-5-(trifluoromethyl)pyrimidin-2-yl)-2-azaspiro[4.4]non-7-amine] | 0.2 to 5 | – |
| > 50 | 5 to 50 | < 0.02 | < 0.02 | > 50 | – | CP(C)(=O)c1cccc2c(-c3nc(NC4(CO)CCOC4)ncc3C(F)(F)F)c[nH]c12 (stereo not drawn) [Compound 117, (3-(2-((3-(hydroxymethyl)tetrahydrofuran-3-yl)amino)-5-(trifluoromethyl)pyrimidin-4-yl)-1H-indole-7-yl)dimethylphosphine oxide] | < 0.02 | – |
| > 50 | 5 to 50 | < 0.02 | < 0.02 | > 50 | – | CC(O)[C@H](C)Nc1ncc(C(F)(F)F)c(-c2c[nH]c3c(P(C)(C)=O)cccc23)n1 (mixture of isomers) [Compound 128, (3-(2-(((2S)-3-hydroxybutan-2-yl)amino)-5-(trifluoromethyl)pyrimidin-4-yl)-1H-indole-7-yl)dimethylphosphine oxide] | 0.02 to 0.2 | – |
| > 50 | > 50 | 0.02 to 0.2 | 0.02 to 0.2 | > 50 | – | CP(C)(=O)c1cccc2c(-c3nc(NCC(O)C(F)(F)F)ncc3C(F)(F)F)c[nH]c12 (stereo not drawn) [Compound 145, Dimethyl(3-(2-((3,3,3-trifluoro-2-hydroxypropyl)amino)-5-(trifluoromethyl)pyrimidin-4-yl)-1H-indole-7-yl)phosphine oxide] | 0.02 to 0.2 | – |
| 5 to 50 | 5 to 50 | 0.02 to 0.2 | 0.2 to 5 | 5 to 50 | – | FC(F)(F)c1cnc(NCC2CCNC2)nc1-c1c[nH]c2nc(N3CCOCC3)ccc12 (stereo not drawn) [Compound 52, 4-(6-morpholinyl-1H-pyrrolo[2,3-b]pyridin-3-yl)-N-(pyrrolidin-3-ylmethyl)-5-(trifluoromethyl)pyrimidin-2-amine] | 0.2 to 5 | – |
| 5 to 50 | 0.2 to 5 | < 0.02 | < 0.02 | 0.2 to 5 | – | CN(C)CC1CCCC1Nc1ncc(C(F)(F)F)c(-c2c[nH]c3c(P(C)(C)=O)cccc23)n1 (single isomer, unassigned) [Compound 135] | < 0.02 | – |
| > 50 | > 50 | 0.02 to 0.2 | 0.2 to 5 | 5 to 50 | – | CC1(C)COCC(Nc2ncc(C(F)(F)F)c(-c3c[nH]c4nc(C#N)ccc34)n2)CN1 (single isomer, unassigned) [Compound 63] | 0.2 to 5 | – |
| > 50 | 5 to 50 | 0.02 to 0.2 | 0.2 to 5 | > 50 | – | CP(C)(=O)c1cccc2c(-c3nc(NCC4(O)CCOCC4)ncc3C(F)(F)F)c[nH]c12 [Compound 175] | 0.02 to 0.2 | – |
| > 50 | 5 to 50 | 0.02 to 0.2 | 0.02 to 0.2 | > 50 | – | Cc1cnc(N[C@@H](C)CO)nc1-c1c[nH]c2c(P(C)(C)=O)cccc12 [Compound 178] | 0.2 to 5 | – |
| > 50 | > 50 | 0.02 to 0.2 | 0.2 to 5 | > 50 | – | CP(C)(=O)c1cccc2c(-c3nc(N[C@@H]4COCC[C@H]4O)ncc3C(F)(F)F)c[nH]c12 [Compound 167] | 0.2 to 5 | – |
